Measured values reported in patent US12478620B2, “Cyano-substituted cyclic hydrazine derivative and application thereof” (E-nitiate Biopharmaceuticals (Hangzhou) Co., Ltd, priority 2019, dated 2025).

Experiments:
JAK2 = JAK2 (Homo sapiens, UniProt O60674); assay: JAK kinase inhibitor activity detection (ULight-JAK-1 substrate, Eu-labeled anti-phosphotyrosine antibody), JAK2; type: biochemical; conditions: JAK2 0.125 nM, substrate 50 nM, ATP 10 μM, 1 h room temperature
Description: (§1) Activity Detection of Small Molecule Inhibitors of JAK Kinase
(§2) • (1) kinase reaction buffer • Prepare the kinase reaction buffer with the following components: 50 mM HEPES, pH 7.5, 1 mM EGTA, 10 mM MgCl2, 2 mM DTT, 0.01% Tween20 • (2) 1× detection buffer • To prepare detection buffer, dilute 10× detection buffer to 1× with deionized water 9:1 • (3) 4× kinase solution • Dilute JAK to 4× final concentration by JAK reaction buffer (JAK1: 40 nM, JAK2: 0.5 nM) • (4) 4× substrate solution • Dilute ULight™-JAK-1 (Tyr1023) substrate to 200 nM by kinase reaction buffer (final concentration: 50 nM) • (5) 4×ATP solution • Dilute ATP to 4× final concentration by kinase reaction buffer (JAK1: 160 μM, JAK2: 40 μM) • (6) 4× compound testing solution • DMSO dissolves the testing compound into 10 mM stock solution, then prepared to the desired concentration with 3-fold serial dilution, and 10 concentration points were set for each compound. Besides, the final concentration range of the testing compound is: 10 μM-0.5 nM • (7) 4× enzyme reaction termination liquid • 1× test buffer dissolves EDTA to 40 mM (EDTA final concentration: 10 mM) • (8) 4× antibody detection solution • 1× test buffer dilutes Eu labeled antibody (anti-phosphotyrosine (PT66)) to 8 nM (antibody final concentration: 2 nM) 2. Experimental Process • (1) Successively add 2.5 μL 4×JAK solution, and 2.5 μL of diluted 4× test compound solution in different concentrations to the 384 microporous plate, and set 2 multi-wells for each concentration. Meanwhile, set enzyme solution blank control group and negative control group (DMSO group). • (2) Shake the 384-hole plate, mix enzymes and compounds, centrifuge at 1000 rpm for 1 minute, and incubate at room temperature for 60 minutes • (3) Add 2.5 μL of 4× substrate solution to a 384-hole plate and centrifuge at 1000 rpm for 1 min • (4) Add 2.5 μL of 4×ATP solution to the 384 multi-well plate and centrifuge at 1000 rpm for 1 minute to initiate the enzyme reaction. • (5) JAK1 reacts at room temperature for 2 h, and JAK2 react at room temperature for 1 h. • (6) The final concentrations of each group of the JAK1 reaction are: JAK1: 10 nM, substrate: 50 nM, ATP: 40 uM, and the final concentration range of the test compound is: 10 μM-0.5 nM • The final concentrations of each group of the JAK2 reaction are: JAK2: 0.125 nM, substrate: 50 nM, ATP: 10 μM, and the final concentration range of test compounds is: 10 μM-0.5 nM • (7) After the enzyme reaction, add 5 μL of 4× enzyme reaction stop solution to each well of the 384-well plate with 1000 rpm, centrifuge for 1 minute, and incubate at room temperature for 5 min. • (8) Add 5 μL of 4× detection antibody solution to each well of a 384-well plate (final concentration of detection antibody is 2 nM) with 1000 rpm, centrifuge for 1 minute, and incubate at room temperature for 1 h. • (10) After antibody incubation, measure the signal value of each well on an Envision plate reader 3. Data Analysis • (1) Taking the enzyme solution blank control group as 100% inhibition rate and the negative control group (DMSO group) as 0% inhibition rate, calculate the percentage inhibition rate corresponding to each concentration of the tested compounds • (2) In GraphPad Prism software, nonlinear regression analysis is performed on the concentration logarithm of the test compound and the corresponding percentage inhibition rate to obtain the half-inhibitory concentration (IC50) of the test compound.

JAK1 = JAK1 (Homo sapiens, UniProt P23458); assay: JAK kinase inhibitor activity detection (ULight-JAK-1 substrate, Eu-labeled anti-phosphotyrosine antibody), JAK1; type: biochemical; conditions: JAK1 10 nM, substrate 50 nM, ATP 40 uM, 2 h room temperature
Sequence of JAK1 (P23458 whole entry, species assumed): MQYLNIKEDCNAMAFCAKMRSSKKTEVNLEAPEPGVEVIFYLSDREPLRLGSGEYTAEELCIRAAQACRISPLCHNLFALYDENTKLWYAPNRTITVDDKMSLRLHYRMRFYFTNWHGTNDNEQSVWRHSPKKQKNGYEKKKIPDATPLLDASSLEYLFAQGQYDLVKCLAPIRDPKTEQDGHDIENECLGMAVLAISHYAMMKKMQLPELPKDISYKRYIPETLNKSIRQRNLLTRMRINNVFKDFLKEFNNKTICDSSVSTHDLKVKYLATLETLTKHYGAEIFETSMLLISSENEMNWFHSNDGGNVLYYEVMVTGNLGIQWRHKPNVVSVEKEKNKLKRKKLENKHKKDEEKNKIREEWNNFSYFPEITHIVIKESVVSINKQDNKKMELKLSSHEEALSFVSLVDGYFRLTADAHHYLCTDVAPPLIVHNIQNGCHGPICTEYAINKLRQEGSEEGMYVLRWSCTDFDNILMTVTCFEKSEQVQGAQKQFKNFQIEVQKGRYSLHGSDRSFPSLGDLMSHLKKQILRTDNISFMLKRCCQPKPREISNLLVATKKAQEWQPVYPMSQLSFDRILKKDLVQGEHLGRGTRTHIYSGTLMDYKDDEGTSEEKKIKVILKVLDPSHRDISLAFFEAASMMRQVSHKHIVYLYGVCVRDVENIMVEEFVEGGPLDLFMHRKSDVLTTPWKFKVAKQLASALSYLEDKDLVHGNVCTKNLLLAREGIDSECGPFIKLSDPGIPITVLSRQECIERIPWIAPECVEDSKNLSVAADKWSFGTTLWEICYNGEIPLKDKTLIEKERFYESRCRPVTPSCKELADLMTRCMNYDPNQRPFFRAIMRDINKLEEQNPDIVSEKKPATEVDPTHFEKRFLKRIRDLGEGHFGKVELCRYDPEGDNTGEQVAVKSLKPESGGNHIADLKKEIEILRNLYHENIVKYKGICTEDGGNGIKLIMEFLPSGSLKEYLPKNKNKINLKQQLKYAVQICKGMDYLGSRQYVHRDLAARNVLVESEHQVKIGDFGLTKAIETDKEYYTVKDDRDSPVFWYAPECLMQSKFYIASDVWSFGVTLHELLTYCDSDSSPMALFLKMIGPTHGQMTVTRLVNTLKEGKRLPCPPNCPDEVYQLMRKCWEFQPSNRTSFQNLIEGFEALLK
Description: as §1, §2

Sequence of JAK2 (O60674 whole entry, species assumed): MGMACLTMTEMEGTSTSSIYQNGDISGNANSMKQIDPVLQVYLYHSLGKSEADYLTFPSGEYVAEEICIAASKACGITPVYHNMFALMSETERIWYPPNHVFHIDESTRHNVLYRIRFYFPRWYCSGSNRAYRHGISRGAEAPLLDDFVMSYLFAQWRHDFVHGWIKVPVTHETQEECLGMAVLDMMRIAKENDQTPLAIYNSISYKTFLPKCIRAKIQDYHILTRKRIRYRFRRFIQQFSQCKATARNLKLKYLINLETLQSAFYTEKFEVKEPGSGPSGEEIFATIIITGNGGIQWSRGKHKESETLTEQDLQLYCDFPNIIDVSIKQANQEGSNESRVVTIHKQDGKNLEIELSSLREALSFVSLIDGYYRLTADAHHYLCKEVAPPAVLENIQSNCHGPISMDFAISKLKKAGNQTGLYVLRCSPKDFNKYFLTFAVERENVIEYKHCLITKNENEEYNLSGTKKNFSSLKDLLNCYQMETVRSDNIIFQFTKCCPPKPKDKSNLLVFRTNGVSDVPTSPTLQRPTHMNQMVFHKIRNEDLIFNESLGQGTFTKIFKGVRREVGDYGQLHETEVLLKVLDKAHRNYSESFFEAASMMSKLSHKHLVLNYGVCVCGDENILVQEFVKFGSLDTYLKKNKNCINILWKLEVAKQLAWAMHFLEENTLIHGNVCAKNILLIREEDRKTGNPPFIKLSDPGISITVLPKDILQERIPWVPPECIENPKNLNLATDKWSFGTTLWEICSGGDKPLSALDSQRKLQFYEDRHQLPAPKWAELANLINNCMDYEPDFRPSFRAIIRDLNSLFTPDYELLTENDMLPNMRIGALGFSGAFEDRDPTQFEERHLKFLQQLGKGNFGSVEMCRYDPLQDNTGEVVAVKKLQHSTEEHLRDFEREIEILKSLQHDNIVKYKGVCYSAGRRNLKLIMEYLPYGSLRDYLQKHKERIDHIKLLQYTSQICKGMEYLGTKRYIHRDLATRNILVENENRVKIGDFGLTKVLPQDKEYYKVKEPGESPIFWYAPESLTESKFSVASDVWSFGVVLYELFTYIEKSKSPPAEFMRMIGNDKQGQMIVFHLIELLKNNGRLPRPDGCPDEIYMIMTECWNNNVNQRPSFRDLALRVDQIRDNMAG

| SMILES | IC50 (JAK2) [nM] | IC50 (JAK1) [nM] |
| --- | --- | --- |
| N#CC1CCN(n2cnc3cnc4[nH]ccc4c32)CC1 [Example 1, 1-(imidazo[4,5-d]pyrrolo[2,3-b]pyridine-1(6H)-yl)piperidine-4-carbonitrile] | 70.9 | 23.8 |
| C[C@@H](O)c1nc2cnc3[nH]ccc3c2n1N1C2CCC1CC(CC#N)C2 (stereo partly drawn) [Example 23, 2-(8-(2-((R)-1-hydroxyethyl)imidazo[4,5-d]pyrrolo[2,3-b]pyridin-1(6H)-yl)-8-azabicyclo[3.2.1]octan-3-yl)acetonitrile] | 6.07 | 2.71 |
| N#CCC1(O)CCN(n2cnc3cnc4[nH]ccc4c32)CC1 [Example 19, 2-(4-hydroxy-1-(imidazo[4,5-d]pyrrolo[2,3-b]pyridine-1(6H)-yl)-piperidine-4-yl)acetonitrile] | 6.01 | 2.37 |
| Cc1nc2cnc3[nH]ccc3c2n1N1CCC(CC#N)CC1 [Example 3, 2-(1-(methylimidazo[4,5-d]pyrrolo[2,3-b]pyridine-1(6H)-yl)piperidin-4-yl)acetonitrile] | 0.28 | 0.17 |
| N#CCC1CCN(n2c(N)nc3cnc4[nH]ccc4c32)CC1 [Example 9, 2-(1-(2-aminoimidazo[4,5-d]pyrrolo[2,3-b]pyridine-1(6H)-yl)piperidin-4-yl)acetonitrile] | 0.7 | 0.14 |
| C[C@@H](O)c1nc2cnc3[nH]ccc3c2n1N1CCC(CC#N)CC1 [Example 7, (R)-2-(1-(2-(1-hydroxyethyl)imidazo[4,5-d]pyrrolo[2,3-b]pyridine-1(6H)-yl)piperidin-4-yl)acetonitrile] | 4 | 0.08 |
| N#CCC1CCN(n2cnc3cnc4[nH]ccc4c32)CC1 [Example 2, 2-(1-(imidazo[4,5-d]pyrrolo[2,3-b]pyridine-1(6H)-yl)piperidin-4-yl)acetonitrile] | 1.7 | 0.28 |
| CC[C@@H]1C[C@@H](CC#N)CN1n1cnc2cnc3[nH]ccc3c21 [Example 36-1, 2-((3S,5R)-5-ethyl-1-(imidazo[4,5-d]pyrrolo[2,3-b]pyridine-1(6H)-yl)pyrrolidin-3-yl) acetonitrile] | 23.5 | 6.8 |
| CC1CN(C(=O)CC#N)CN1n1cnc2cnc3[nH]ccc3c21 (stereo not drawn) [Example 30, 3-(4-methyl-3-(imidazo[4,5-d]pyrrolo[2,3-b]pyridine-1(6H)-yl)imidazoline-1-yl)-3-Oxopropionitrile] | 28.1 | 2.8 |
| N#CCCN1CCN(n2cnc3cnc4[nH]ccc4c32)CC1 [Example 25, 3-(4-(imidazo[4,5-d]pyrrolo[2,3-b]pyridin-1(6H)-yl)piperazin-1-yl)propanenitrile] | 5.3 | 5.2 |
| CC(C)(C#N)C1CCN(n2cnc3cnc4[nH]ccc4c32)CC1 [Example 14, 2-(1-(imidazo[4,5-d]pyrrolo[2,3-b]pyridine-1(6H)-yl)piperidine-4-yl)-2-methyl propionitrile] | 7.5 | 13.5 |
| N#CCC1CCN(n2c(CO)nc3cnc4[nH]ccc4c32)CC1 [Example 5, 2-(1-(2-(hydroxymethyl)imidazo[4,5-d]pyrrolo[2,3-b]pyridine-1(6H)-yl)piperidin-4-yl)acetonitrile] | 1.45 | 0.28 |
| N#CCNC1CCN(n2cnc3cnc4[nH]ccc4c32)C1 (stereo not drawn) [Example 34, 2-((1-(imidazo[4,5-d]pyrrolo[2,3-b]pyridine-1(6H)-yl)pyrrolidine-3-yl)amino)acetonitrile] | 51.7 | 73.8 |

Continued by falling IC50 (JAK2), values first:

| IC50 (JAK2) [nM] | IC50 (JAK1) [nM] | SMILES |
| --- | --- | --- |
| 151 | 41.7 | N#CCC(=O)N1CCN(n2cnc3cnc4[nH]ccc4c32)CC1 [Example 26, 3-(4-(imidazo[4,5-d]pyrrorolo[2,3-b]pyridin-1(6H)-yl)piperazin-1-yl)oxypropionitrile] |
| 61.3 | 9.5 | CC[C@@H]1C[C@H](C#N)CN1n1cnc2cnc3[nH]ccc3c21 [Example 35, (3S,5R)-5-ethyl-1-(imidazo[4,5-d]pyrrole[2,3-b]pyridine(6H)-yl)pyrrolidine-3-carbonitrile] |
| 56.7 | 16 | C[C@@H](O)c1nc2cnc3[nH]ccc3c2n1N1CCC2(CC1)CC2C#N (stereo partly drawn) [Example 13, 6-(2-((R)-1-hydroxyethyl)imidazo[4,5-d]pyrrolo[2,3-b]pyridine-1(6H)-yl)-6-azaspiro[2.5]octane-1-carbonitrile] |
| 46.6 | 7.72 | N#CCN1CCN(n2cnc3cnc4[nH]ccc4c32)CC1 [Example 24, 3-(4-(imidazo[4,5-d]pyrrolo[2,3-b]pyridin-1(6H)-yl)piperazin-1-yl)acetonitrile] |
| 29.1 | 11.2 | N#CCC(=O)NC1CCN(n2cnc3cnc4[nH]ccc4c32)C1 (stereo not drawn) [Example 33, 2-cyano-N-(1-(imidazo[4,5-d]pyrrolo[2,3-b]pyridine-1(6H)-yl)pyrrolidine-3-yl)acetamide] |
| 16.1 | 1.31 | N#CC=C1CCN(n2cnc3cnc4[nH]ccc4c32)CC1 [Example 16, 2-(1-(imidazo[4,5-d]pyrrolo[2,3-b]pyridin-1(6H)-yl)piperidin-4-ylidene)acetonitrile] |
| 16.1 | 5.14 | C[C@@H](O)c1nc2cnc3[nH]ccc3c2n1N1CCC(C(C)(C)C#N)CC1 [Example 15, (R)-2-(1-(2-(1-hydroxyethyl)imidazo[4,5-d]pyrrolo[2,3-b]pyridine-1(6H)-yl)piperidine-4-yl)-2-methyl propionitrile] |
| 15.3 | 6.8 | CC[C@@H]1CN(C(=O)CC#N)CN1n1cnc2cnc3[nH]ccc3c21 [Example 32, (R)-3-(4-ethyl-3-(imidazo[4,5-d]pyrrolo[2,3-b]pyridine-1(6H)-yl)imidazoline-1-yl)-3-oxopropionitrile] |
| 13.8 | 6.31 | C[C@@H](O)c1nc2cnc3[nH]ccc3c2n1N1CCC(C)(CC#N)CC1 [Example 18, (R)-2-(1-(2-(1-hydroxyethyl)imidazo[4,5-d]pyrrolo[2,3-b]pyridine-1(6H)-yl)-4-methylpiperidine-4-yl)acetonitrile] |
| 6.1 | 0.8 | CS(=O)(=O)NCc1nc2cnc3[nH]ccc3c2n1N1CCC(CC#N)CC1 [Example 10, N-((1-(4-(cyanomethyl)piperidin-1-yl)-1,6-dihydroimidazole[4,5-d]pyrrolo[2,3-b]pyridine-2-yl)methyl)methanesulfonamide] |
| 4.77 | 0.92 | N#CCC1CC2CCC(C1)N2n1cnc2cnc3[nH]ccc3c21 (stereo not drawn) [Example 21, 2-(8-(imidazo[4,5-d]pyrrolo[2,3-b]pyridin-1(6H)-yl)-8-azabicyclo[3.2.1]octan-3-yl)acetonitrile] |
| 4.04 | 1.6 | C[C@@H](O)c1nc2cnc3[nH]ccc3c2n1N1C2CCC1CC(=CC#N)C2 [Example 22, 2-(8-(2-((R)-1-hydroxyethyl)imidazo[4,5-d]pyrrolo[2,3-b]pyridin-1(6H)-yl)-8-azabicyclo[3.2.1]octan-3-ylidene)acetonitrile] |
| 2.3 | 1.7 | C[C@@H](O)c1nc2cnc3[nH]ccc3c2n1N1CCCC(CC#N)CC1 (stereo partly drawn) [Example 27, 2-(1-(2-((R)-1-hydroxyethyl)imidazo[4,5-d]pyrrolo[2,3-b]pyridin-1(6H)-yl)-6-azepan-4-yl)acetonitrile] |
| 1.9 | 4.3 | N#CC=C1CC2CCC(C1)N2n1cnc2cnc3[nH]ccc3c21 [Example 20, 2-(8-(imidazo[4,5-d]pyrrolo[2,3-b]pyridin-1(6H)-yl)-8-azabicyclo[3.2.1]octan-3-ylidene)acetonitrile] |
